Patent US12343326B2, “Psychoactive medicines and their use for treating psychiatric and neurological conditions and disorders” (Transcend Therapeutics, Inc., priority 2021, dated 2025)

Assays:
Assay in all cases: β-arrestin based GPCR screen (PathHunter / GPCRmax), antagonist mode
[1] = molecular target: 168 GPCRs (Homo sapiens, UniProt P21554)
[2] = molecular target: 168 GPCRs (Homo sapiens, UniProt P18825); details: ADRA2C, Antagonist
[3] = molecular target: 168 GPCRs (Homo sapiens, UniProt O95136)
[4] = molecular target: 168 GPCRs (Homo sapiens, UniProt Q9UBY5)
[5] = molecular target: 168 GPCRs (Homo sapiens, UniProt P32745)
[6] = molecular target: 168 GPCRs (Homo sapiens, UniProt O43614)
[7] = molecular target: 168 GPCRs (Homo sapiens, UniProt O43613)
[8] = molecular target: 168 GPCRs (Homo sapiens, UniProt P25929); details: NPY1R
[9] = molecular target: 168 GPCRs (Homo sapiens, UniProt P23945); details: FSHR
[10] = molecular target: 168 GPCRs (Homo sapiens, UniProt P25101); details: EDNRA
[11] = molecular target: 168 GPCRs (Homo sapiens, UniProt P21728)
[12] = molecular target: 168 GPCRs (Homo sapiens, UniProt P34998)
[13] = molecular target: 168 GPCRs (Homo sapiens, UniProt P30550); details: GRPR
[14] = molecular target: 168 GPCRs (Homo sapiens, UniProt P43115)
[15] = molecular target: 168 GPCRs (Homo sapiens, UniProt P41145)
[16] = molecular target: 168 GPCRs (Homo sapiens, UniProt Q9H244)
[17] = molecular target: 168 GPCRs (Homo sapiens, UniProt P43220); details: GLP1R
[18] = molecular target: 168 GPCRs (Homo sapiens, UniProt P16473); details: TSHR(L)
[19] = molecular target: 168 GPCRs (Homo sapiens, UniProt P49238)
[20] = molecular target: 168 GPCRs (Homo sapiens, UniProt P21453)
[21] = molecular target: 168 GPCRs (Homo sapiens, UniProt P30872)
[22] = molecular target: 168 GPCRs (Homo sapiens, UniProt Q96G91)
[23] = molecular target: 168 GPCRs (Homo sapiens, UniProt P43088); details: PTGFR

168 GPCRs (Homo sapiens, UniProt O95136), sequence (O95136 whole entry): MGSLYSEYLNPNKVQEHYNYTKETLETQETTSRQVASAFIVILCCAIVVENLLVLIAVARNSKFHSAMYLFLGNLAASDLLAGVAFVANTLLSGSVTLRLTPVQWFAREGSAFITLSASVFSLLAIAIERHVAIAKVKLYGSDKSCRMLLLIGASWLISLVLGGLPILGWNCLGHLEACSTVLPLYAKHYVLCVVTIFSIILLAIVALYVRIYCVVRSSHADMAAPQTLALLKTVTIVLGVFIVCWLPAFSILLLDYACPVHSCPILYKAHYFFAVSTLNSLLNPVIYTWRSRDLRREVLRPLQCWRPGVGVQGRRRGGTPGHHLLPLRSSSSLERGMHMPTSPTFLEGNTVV
168 GPCRs (Homo sapiens, UniProt Q9H244), sequence (Q9H244 whole entry): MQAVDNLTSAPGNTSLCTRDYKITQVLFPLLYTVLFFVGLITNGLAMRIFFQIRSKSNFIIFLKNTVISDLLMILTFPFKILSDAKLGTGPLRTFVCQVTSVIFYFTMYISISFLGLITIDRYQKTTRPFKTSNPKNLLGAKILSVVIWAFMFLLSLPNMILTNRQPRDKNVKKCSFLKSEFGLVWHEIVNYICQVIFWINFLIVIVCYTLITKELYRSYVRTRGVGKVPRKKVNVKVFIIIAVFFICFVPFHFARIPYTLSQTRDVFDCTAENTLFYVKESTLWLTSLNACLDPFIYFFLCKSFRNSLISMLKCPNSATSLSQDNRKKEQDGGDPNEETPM
168 GPCRs (Homo sapiens, UniProt P21728), sequence (P21728 whole entry): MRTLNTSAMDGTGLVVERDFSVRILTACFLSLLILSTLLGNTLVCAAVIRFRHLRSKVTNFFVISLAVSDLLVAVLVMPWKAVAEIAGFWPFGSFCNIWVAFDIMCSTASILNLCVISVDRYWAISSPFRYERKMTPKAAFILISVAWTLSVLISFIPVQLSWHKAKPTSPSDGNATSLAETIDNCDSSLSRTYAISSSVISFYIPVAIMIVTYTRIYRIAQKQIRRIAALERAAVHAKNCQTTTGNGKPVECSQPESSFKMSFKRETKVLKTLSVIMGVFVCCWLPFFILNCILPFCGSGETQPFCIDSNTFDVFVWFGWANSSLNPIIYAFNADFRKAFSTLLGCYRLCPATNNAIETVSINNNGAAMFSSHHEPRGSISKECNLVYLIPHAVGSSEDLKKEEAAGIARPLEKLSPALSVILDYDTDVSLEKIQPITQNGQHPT
168 GPCRs (Homo sapiens, UniProt P49238), sequence (P49238 whole entry): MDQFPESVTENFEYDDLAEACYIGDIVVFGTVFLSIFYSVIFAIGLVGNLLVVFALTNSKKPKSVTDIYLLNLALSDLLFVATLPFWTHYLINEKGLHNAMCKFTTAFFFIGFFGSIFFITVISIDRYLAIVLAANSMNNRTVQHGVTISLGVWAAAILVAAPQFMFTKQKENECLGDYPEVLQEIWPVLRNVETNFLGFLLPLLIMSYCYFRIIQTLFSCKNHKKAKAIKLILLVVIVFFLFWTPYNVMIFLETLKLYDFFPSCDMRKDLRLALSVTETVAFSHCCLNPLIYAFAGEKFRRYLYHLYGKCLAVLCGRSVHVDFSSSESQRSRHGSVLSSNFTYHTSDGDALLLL
168 GPCRs (Homo sapiens, UniProt P18825), sequence (P18825 whole entry): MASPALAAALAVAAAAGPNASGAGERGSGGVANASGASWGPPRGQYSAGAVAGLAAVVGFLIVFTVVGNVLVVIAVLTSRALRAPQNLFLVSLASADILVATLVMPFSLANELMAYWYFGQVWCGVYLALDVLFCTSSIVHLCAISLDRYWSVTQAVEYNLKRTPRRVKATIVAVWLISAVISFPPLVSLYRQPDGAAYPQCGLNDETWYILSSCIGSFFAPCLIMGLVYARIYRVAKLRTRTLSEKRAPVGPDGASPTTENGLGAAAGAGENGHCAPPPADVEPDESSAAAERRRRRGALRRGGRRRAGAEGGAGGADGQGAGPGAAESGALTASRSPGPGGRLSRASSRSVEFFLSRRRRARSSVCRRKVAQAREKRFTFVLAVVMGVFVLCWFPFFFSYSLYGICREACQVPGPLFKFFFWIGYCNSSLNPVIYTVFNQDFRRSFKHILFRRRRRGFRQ
168 GPCRs (Homo sapiens, UniProt P41145), sequence (P41145 whole entry): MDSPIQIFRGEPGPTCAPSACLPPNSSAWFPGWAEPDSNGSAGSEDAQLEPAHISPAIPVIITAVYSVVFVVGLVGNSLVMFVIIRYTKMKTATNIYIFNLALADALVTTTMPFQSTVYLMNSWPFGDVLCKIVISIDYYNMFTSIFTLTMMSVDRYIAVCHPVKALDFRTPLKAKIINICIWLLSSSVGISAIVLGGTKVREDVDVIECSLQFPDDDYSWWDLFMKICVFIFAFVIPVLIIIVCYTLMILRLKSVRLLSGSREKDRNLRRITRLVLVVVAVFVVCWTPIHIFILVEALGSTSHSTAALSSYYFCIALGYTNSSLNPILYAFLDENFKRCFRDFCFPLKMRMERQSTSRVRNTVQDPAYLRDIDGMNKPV
168 GPCRs (Homo sapiens, UniProt P34998), sequence (P34998 24-415): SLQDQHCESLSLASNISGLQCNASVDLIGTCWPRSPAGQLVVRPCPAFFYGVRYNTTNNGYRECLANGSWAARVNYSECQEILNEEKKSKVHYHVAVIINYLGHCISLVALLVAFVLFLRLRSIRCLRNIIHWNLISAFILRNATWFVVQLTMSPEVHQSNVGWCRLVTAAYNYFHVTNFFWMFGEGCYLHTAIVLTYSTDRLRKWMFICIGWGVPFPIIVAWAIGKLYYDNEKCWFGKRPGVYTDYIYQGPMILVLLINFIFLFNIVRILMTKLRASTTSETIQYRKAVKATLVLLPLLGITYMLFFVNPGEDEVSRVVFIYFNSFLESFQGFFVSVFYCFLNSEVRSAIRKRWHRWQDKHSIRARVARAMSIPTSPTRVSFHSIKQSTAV
168 GPCRs (Homo sapiens, UniProt P23945), sequence (P23945 18-695): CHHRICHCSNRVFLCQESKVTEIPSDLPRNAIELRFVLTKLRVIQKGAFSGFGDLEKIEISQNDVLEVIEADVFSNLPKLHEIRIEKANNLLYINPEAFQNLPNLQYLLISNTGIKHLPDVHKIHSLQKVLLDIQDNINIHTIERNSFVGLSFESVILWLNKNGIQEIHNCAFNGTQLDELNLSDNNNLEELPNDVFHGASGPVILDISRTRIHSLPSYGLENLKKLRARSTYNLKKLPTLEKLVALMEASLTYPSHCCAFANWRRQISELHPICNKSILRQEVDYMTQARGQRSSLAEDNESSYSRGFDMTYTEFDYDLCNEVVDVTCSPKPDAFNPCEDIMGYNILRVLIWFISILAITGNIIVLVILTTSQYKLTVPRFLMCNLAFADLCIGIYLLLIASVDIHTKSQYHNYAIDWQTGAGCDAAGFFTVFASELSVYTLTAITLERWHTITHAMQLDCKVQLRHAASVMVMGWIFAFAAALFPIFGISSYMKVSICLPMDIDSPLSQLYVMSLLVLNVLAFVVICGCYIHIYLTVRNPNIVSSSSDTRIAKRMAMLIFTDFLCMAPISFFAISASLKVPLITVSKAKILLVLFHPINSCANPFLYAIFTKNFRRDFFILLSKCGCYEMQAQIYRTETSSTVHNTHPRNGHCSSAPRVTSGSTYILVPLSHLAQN
168 GPCRs (Homo sapiens, UniProt O43614), sequence (O43614 whole entry): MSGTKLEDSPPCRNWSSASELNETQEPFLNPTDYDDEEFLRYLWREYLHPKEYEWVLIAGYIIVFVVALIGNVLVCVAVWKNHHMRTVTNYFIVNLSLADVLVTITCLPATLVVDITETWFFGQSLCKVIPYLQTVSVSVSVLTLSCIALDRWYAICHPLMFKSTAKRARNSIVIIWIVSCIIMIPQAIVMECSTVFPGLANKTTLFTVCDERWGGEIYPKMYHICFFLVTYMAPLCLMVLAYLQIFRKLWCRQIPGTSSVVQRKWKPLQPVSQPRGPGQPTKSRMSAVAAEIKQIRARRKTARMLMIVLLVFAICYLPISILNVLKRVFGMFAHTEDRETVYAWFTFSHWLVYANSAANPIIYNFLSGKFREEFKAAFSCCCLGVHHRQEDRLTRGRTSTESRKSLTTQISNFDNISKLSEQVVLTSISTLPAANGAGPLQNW
168 GPCRs (Homo sapiens, UniProt P43115), sequence (P43115 whole entry): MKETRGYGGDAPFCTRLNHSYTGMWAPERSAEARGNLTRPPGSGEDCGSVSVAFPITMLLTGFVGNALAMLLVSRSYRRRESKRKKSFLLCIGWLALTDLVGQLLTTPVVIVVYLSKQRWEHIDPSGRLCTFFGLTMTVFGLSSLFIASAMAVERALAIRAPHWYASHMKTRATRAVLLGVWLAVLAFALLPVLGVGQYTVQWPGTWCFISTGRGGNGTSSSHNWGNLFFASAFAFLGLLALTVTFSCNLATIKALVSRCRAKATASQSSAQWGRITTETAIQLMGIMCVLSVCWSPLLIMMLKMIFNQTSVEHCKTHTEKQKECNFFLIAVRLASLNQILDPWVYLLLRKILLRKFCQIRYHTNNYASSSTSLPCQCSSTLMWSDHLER
168 GPCRs (Homo sapiens, UniProt P30550), sequence (P30550 whole entry): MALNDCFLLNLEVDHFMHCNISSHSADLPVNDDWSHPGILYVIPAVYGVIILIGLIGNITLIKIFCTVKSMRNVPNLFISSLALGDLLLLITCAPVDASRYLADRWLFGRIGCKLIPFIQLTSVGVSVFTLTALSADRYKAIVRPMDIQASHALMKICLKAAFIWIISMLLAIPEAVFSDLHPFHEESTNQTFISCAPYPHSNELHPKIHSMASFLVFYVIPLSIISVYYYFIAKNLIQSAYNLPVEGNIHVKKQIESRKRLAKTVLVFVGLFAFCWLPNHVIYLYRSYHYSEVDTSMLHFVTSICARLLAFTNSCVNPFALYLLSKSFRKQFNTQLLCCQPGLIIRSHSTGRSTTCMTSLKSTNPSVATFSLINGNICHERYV

CNC(C)C(=O)c1ccc2c(c1)OCO2 (stereo not shown) [methylone, 3,4-methylenedioxy-N-methylcathinone]
activity at 10 µM ([1]; CNR1, Antagonist mode, 10 uM): -17.1% | activity at 1 µM ([1]; CNR1, Antagonist, 1 uM): -3.5% | activity at 1 µM ([2]; 1 uM): -4.3% | activity at 10 µM ([2]; 10 uM): 17.6% | activity at 10 µM ([3]; EDG5, Antagonist mode, 10 uM): -6.3% | activity at 1 µM ([3]; EDG5, Antagonist, 1 uM): -3.4% | activity at 10 µM ([4]; EDG7, Antagonist mode, 10 uM): 17.9% | activity at 1 µM ([4]; EDG7, Antagonist, 1 uM): 19.5% | activity at 10 µM ([5]; SSTR3, Antagonist mode, 10 uM): 8% | activity at 1 µM ([5]; SSTR3, Antagonist, 1 uM): 13.2% | activity at 10 µM ([6]; HCRTR2, Antagonist mode, 10 uM): 2.4% | activity at 1 µM ([6]; HCRTR2, Antagonist, 1 uM): 6.4% | activity at 10 µM ([7]; HCRTR1, Antagonist mode, 10 uM): 1.2% | activity at 1 µM ([7]; HCRTR1, Antagonist, 1 uM): 2.3% | activity at 10 µM ([8]; Antagonist mode, 10 uM): 5.4% | activity at 1 µM ([8]; Antagonist, 1 uM): 0.2% | activity at 10 µM ([9]; Antagonist mode, 10 uM): -8.4% | activity at 1 µM ([9]; Antagonist, 1 uM): -11.8% | activity at 10 µM ([10]; Antagonist mode, 10 uM): -11.3% | activity at 1 µM ([10]; Antagonist, 1 uM): -2.4% | activity at 10 µM ([11]; DRD1, Antagonist mode, 10 uM): 7.8% | activity at 1 µM ([11]; DRD1, Antagonist, 1 uM): 6% | activity at 10 µM ([12]; CRHR1, Antagonist mode, 10 uM): 0.6% | activity at 1 µM ([12]; CRHR1, Antagonist, 1 uM): 1.3% | activity at 10 µM ([13]; Antagonist mode, 10 uM): -1.4% | activity at 1 µM ([13]; Antagonist, 1 uM): 0.7% | activity at 10 µM ([14]; PTGER3, Antagonist mode, 10 uM): 5.7% | activity at 1 µM ([14]; PTGER3, Antagonist, 1 uM): -6.2% | activity at 10 µM ([15]; OPRK1, Antagonist mode, 10 uM): 10.4% | activity at 1 µM ([15]; OPRK1, Antagonist, 1 uM): 11.8% | activity at 10 µM ([16]; P2RY12, Antagonist mode, 10 uM): -10.4% | activity at 1 µM ([16]; P2RY12, Antagonist, 1 uM): -14.8% | activity at 10 µM ([17]; Antagonist mode, 10 uM): -0.9% | activity at 1 µM ([17]; Antagonist, 1 uM): 3.4% | activity at 10 µM ([18]; Antagonist mode, 10 uM): -6.6% | activity at 1 µM ([18]; Antagonist, 1 uM): 6.1% | activity at 10 µM ([19]; CX3CR1, Antagonist mode, 10 uM): -6.1% | activity at 1 µM ([19]; CX3CR1, Antagonist, 1 uM): -0.2% | activity at 10 µM ([20]; EDG1, Antagonist mode, 10 uM): 10.5% | activity at 1 µM ([20]; EDG1, Antagonist, 1 uM): 12.4% | activity at 10 µM ([21]; SSTR1, Antagonist mode, 10 uM): 20.9% | activity at 1 µM ([21]; SSTR1, Antagonist, 1 uM): 32.4% | activity at 10 µM ([22]; P2RY11, Antagonist mode, 10 uM): 6.6% | activity at 1 µM ([22]; P2RY11, Antagonist, 1 uM): 2.7% | activity at 10 µM ([23]; Antagonist mode, 10 uM): 0% | activity at 1 µM ([23]; Antagonist, 1 uM): 0.9%
